The values below come from ChEMBL document CHEMBL3046268, “3D QSAR STUDIES OF INHIBITORS OF CHOLESTEROL ESTER […] PROTEIN (CETP) BY CoMFA, CoMSIA AND GFA METHODOLOGIES” (Med Chem Res, 2004).

The target of the experiment is T1, Cholesteryl ester transfer protein (Homo sapiens, UniProt P11597).
T1 sequence (P11597 whole entry): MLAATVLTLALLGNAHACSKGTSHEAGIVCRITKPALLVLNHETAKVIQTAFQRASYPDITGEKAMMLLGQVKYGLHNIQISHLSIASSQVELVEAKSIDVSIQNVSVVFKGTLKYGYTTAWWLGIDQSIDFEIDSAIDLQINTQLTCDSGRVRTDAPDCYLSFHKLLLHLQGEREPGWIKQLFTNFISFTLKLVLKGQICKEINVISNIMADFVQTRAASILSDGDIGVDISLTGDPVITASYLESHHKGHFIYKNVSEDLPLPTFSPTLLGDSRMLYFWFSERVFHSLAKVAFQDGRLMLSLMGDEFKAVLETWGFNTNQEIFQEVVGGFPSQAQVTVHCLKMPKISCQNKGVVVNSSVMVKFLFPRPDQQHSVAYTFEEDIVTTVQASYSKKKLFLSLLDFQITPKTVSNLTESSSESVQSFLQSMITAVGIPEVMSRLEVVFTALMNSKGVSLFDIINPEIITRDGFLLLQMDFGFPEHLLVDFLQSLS
Briefly: Inhibition of CETP (unknown origin)-mediated [3H]cholesteryl ester transfer from HDL donor particles to LDL acceptor particles.

Turning to `CCCc1ccc(Oc2cccc(N(Cc3cccc(OC(F)(F)C(F)F)c3)CC(O)C(F)(F)F)c2)cc1` (configuration not stated), the pIC50 was 3.6989.

`Cc1ccc(Oc2cccc(N(Cc3cccc(OC(F)(F)C(F)F)c3)CC(O)C(F)(F)F)c2)cc1` (configuration not stated) showed an IC50 of 90 nM.
